Test results reported in patent US8557840B2, “Herbicidal compounds” (Syngenta Limited, priority 2008, dated 2013).

Columns and labels:
Format in all cases: in vivo
[1] = tested on: test plants; experiment: Herbicidal action, post-emergence (Example B1), all test plants, result in words; settings: same protocol as Example B1, post-emergence
Description: Seeds of a variety of test species were sown in sterilised standard soil in seed trays each having 96 cells. […] The plants were grown in the climatic chamber after application at (24/19° C., day/night; 13 hours light; 50-60% humidity) and watered twice daily. After 9 days until the test was evaluated (10=total damage to plant, 0=no damage to plant)

[2] = tested on: Amaranthus retroflexus; experiment: Herbicidal action, post-emergence, pots in glasshouse (Example B2); settings: 1000 g/ha, evaluated after 13 days, 10=total damage to plant, 0=no damage to plant
Description: (§1) Seeds of a variety of test species were sown in standard soil in pots. After 8 days cultivation (post-emergence) under controlled conditions in a glasshouse (at 24/16° C., day/night; 14 hours light; 65% humidity), the plants were sprayed with an aqueous spray solution derived from the formulation of the technical active ingredient in acetone/water (50:50) solution containing 0.5% Tween 20 (polyoxyethelyene sorbitan monolaurate, CAS RN 9005-64-5). The test plants were then grown in a glasshouse under controlled conditions in a glasshouse (at 24/16° C., day/night; 14 hours light; 65% humidity) and watered twice daily. After 13 days, the test was evaluated (10=total damage to plant; 0=no damage to plant).

[3] = tested on: Setaria faberi; experiment: as above; settings: 1000 g/ha, evaluated after 13 days, 10=total damage to plant, 0=no damage to plant
Description: as §1

[4] = tested on: Ipomea hederaceae; experiment: as above; settings: 1000 g/ha, evaluated after 13 days, 10=total damage to plant, 0=no damage to plant
Description: as §1

[5] = tested on: Echinochloa crus-galli; experiment: as above; settings: 1000 g/ha, evaluated after 13 days, 10=total damage to plant, 0=no damage to plant
Description: as §1

[6] = tested on: Solanum nigrum; experiment: as above; settings: 1000 g/ha, evaluated after 13 days, 10=total damage to plant, 0=no damage to plant
Description: as §1

| SMILES | damage to the test plants [1] | AMARE damage to plant [2] | SETFA damage to plant [3] | IPOHE damage to plant [4] | ECHCG damage to plant [5] | SOLNI damage to plant [6] |
| --- | --- | --- | --- | --- | --- | --- |
| O=c1[nH]c2nncnc2c(O)c1-c1c(F)cccc1Cl [E7] | little or no damage |  |  |  |  |  |
| CCn1c(=O)c(-c2c(F)ccc(Cl)c2Cl)c(O)c2c(OC)ccnc21 [D26] |  | 6 | 4 | 6 | 4 | 6 |
| O=c1[nH]c2ncncc2c(O)c1-c1c(F)cc(F)cc1F [E10] | little or no damage |  |  |  |  |  |
| Cn1c(=O)c(-c2c(F)ccc(F)c2Cl)c(OC(=O)C(C)(C)C)c2ccc(C(F)(F)F)nc21 [D30] |  | 0 | 0 | 2 | 0 | 2 |
| Cc1cc(C)c(-c2c(O)c3ncnnc3[nH]c2=O)c(C)c1 [E12] |  | 5 | 10 | 3 | 10 | 1 |
| CC(C)C(=O)Oc1c(-c2c(F)ccc(F)c2Cl)c(=O)n(C)c2cnccc12 [C2] |  | 3 | 0 | 5 | 0 | 2 |
| O=c1c(-c2c(F)ccc(F)c2Cl)c(O)c2cccnc2n1CC(F)F [D21, 3-(2-chloro-3,6-difluoro-phenyl)-1-(2,2-difluoro-ethyl)-4-hydroxy-1H-[1,8]naphthyridin-2-one] |  | 10 | 1 | 9 | 2 | 10 |
| O=c1[nH]c2ncccc2c(O)c1-c1c(Cl)cccc1Cl [D2] | little or no damage |  |  |  |  |  |
| Cc1cc(C)c(-c2c(O)c3cccnc3n(C)c2=O)c(C)c1 [D24] |  | 0 | 0 | 1 | 0 | 1 |
| O=c1[nH]c2ncccc2c(O)c1-c1ccc(Cl)cc1Cl [D1, 3-(2,4-dichloro-phenyl)-4-hydroxy-1H-[1,8]naphthyridin-2-one] | little or no damage |  |  |  |  |  |
| Cn1c(=O)c(-c2c(F)ccc(F)c2Cl)c(O)c2ccncc21 [C1] |  | 0 | 0 | 2 | 0 | 0 |
| Cn1c(=O)c(-c2c(F)ccc(F)c2Cl)c(O)c2ccc(C(F)(F)F)nc21 [D29] |  | 6 | 0 | 7 | 0 | 4 |
| CC(=O)Oc1c(-c2c(F)ccc(F)c2Cl)c(=O)[nH]c2nncnc12 [E5] | little or no damage |  |  |  |  |  |
| CCOC(=O)Oc1c(-c2c(C)cc(C)cc2C)c(=O)[nH]c2nncnc12 [E9] |  | 0 | 9 | 1 | 10 | 0 |
| O=c1[nH]c2nnccc2c(O)c1-c1c(F)cccc1Cl [E8] | little or no damage |  |  |  |  |  |
| COc1cccc(-c2c(O)c3cccnc3[nH]c2=O)c1 [D25] | little or no damage |  |  |  |  |  |
| O=c1[nH]c2cccnc2c(O)c1-c1ccccn1 [A8] | little or no damage |  |  |  |  |  |
| O=c1[nH]c2nc(Cl)ccc2c(O)c1-c1c(F)ccc(F)c1Cl [D14] |  | 4 | 0 | 0 | 4 | 0 |

| SMILES | damage to the test plants [1] | AMARE damage to plant [2] | SETFA damage to plant [3] | IPOHE damage to plant [4] | ECHCG damage to plant [5] | SOLNI damage to plant [6] |
| --- | --- | --- | --- | --- | --- | --- |
| Cn1c(=O)c(-c2c(F)ccc(F)c2Cl)c(OC(=O)C(C)(C)C)c2ccc(Cl)nc21 [D16] |  | 2 | 0 | 2 | 0 | 2 |
| Cc1cc(Cl)c2c(O)c(-c3c(F)ccc(F)c3Cl)c(=O)n(C)c2n1 [D18] |  | 2 | 2 | 0 | 0 | 3 |
| O=c1[nH]c2ncccc2c(O)c1-c1ccccc1OC(F)(F)F [D3] | little or no damage |  |  |  |  |  |
| O=c1[nH]c2ccncc2c(O)c1-c1c(F)ccc(F)c1Cl [B2] | little or no damage |  |  |  |  |  |
| CC(C)(C)C(=O)Oc1c(-c2c(F)ccc(F)c2Cl)c(=O)n(CC(F)F)c2ncccc12 [D10, 2,2-dimethyl-propionic acid 3-(2-chloro-3,6-difluoro-phenyl)-1-(2,2-difluoro-ethyl)-2-oxo-1,2-dihydro-[1,8]naphthyridin-4-yl ester] |  | 7 | 0 | 6 | 0 | 7 |
| O=c1[nH]c2nncnc2c(O)c1-c1c(F)cc(F)cc1F [E11] | little or no damage |  |  |  |  |  |
| O=c1[nH]c2ncc(Br)cc2c(O)c1-c1c(F)cccc1F [D27] | little or no damage |  |  |  |  |  |
| O=c1[nH]c2ncc(Br)cc2c(O)c1-c1c(F)cc(F)cc1F [D28] | little or no damage |  |  |  |  |  |
| O=c1[nH]c2ncccc2c(O)c1-c1ccccn1 [D12] | little or no damage |  |  |  |  |  |
| O=c1c(-c2c(F)ccc(F)c2Cl)c(O)c2ccc(Cl)nc2n1CC(F)F [D17] |  | 6 | 0 | 5 | 0 | 6 |
| CCn1c(=O)c(-c2c(F)ccc(F)c2Cl)c(OC(=O)C(C)C)c2cncnc21 [E2] |  | 5 | 0 | 2 | 2 | 4 |
| O=c1[nH]c2ncccc2c(O)c1-c1c(F)ccc(Br)c1Cl [D33] |  | 1 | 0 | 7 | 0 | 3 |
| O=c1c(-c2c(F)ccc(Br)c2Cl)c(O)c2cccnc2n1CC(F)F [D32] |  | 4 | 1 | 6 | 1 | 7 |
| CC(C)(C)C(=O)Oc1c(-c2c(F)ccc(F)c2Cl)c(=O)[nH]c2nc(C(F)(F)F)ccc12 [D31] |  | 0 | 0 | 1 | 0 | 0 |
| CC(C)C(=O)Oc1c(-c2c(F)ccc(F)c2Cl)c(=O)n(CC(F)F)c2ncncc12 [E3] |  | 7 | 0 | 1 | 0 | 5 |
| Cn1c(=O)c(-c2c(F)ccc(F)c2Cl)c(O)c2ccc(Cl)nc21 [D22] |  | 2 | 0 | 6 | 1 | 4 |
| Cc1cc2c(c(Cl)n1)c(O)c(-c1c(F)ccc(F)c1Cl)c(=O)n2C [B4] |  | 0 | 0 | 2 | 0 | 2 |
| CC(C)C(=O)Oc1c(-c2c(F)ccc(Br)c2Cl)c(=O)n(CC(F)F)c2ncccc12 [D23, isobutyric acid 3-(3-bromo-2-chloro-6-fluoro-phenyl)-1-(2,2-difluoro-ethyl)-2-oxo-1,2-dihydro-[1,8]naphthyridin-4-yl ester] |  | 4 | 0 | 4 | 1 | 9 |
